Assay results from ChEMBL document CHEMBL1201862, “PubChem BioAssay data set” (2004).
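Tested at 5 concentrations; 48 h exposure; 96-well plates; endpoints linearly interpolated, else capped at highest concentration. At the GI50, growth is halved.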 Activity calls are given as the source filed them. Rule as the data show it: active = GI50 up to about 1.1 µM and inactive = higher.

Experiments:
Experiment in all cases: NCI tumour cell line growth inhibition, 48 h
A498 = system: A498
LOX IMVI = system: LOX IMVI
NCI-H23 = system: NCI-H23
MDA-N = system: MDA-N
M14 = system: M14
ACHN = system: ACHN
SW-620 = system: SW-620
T47D = system: T47D
NCI/ADR-RES = system: NCI/ADR-RES
RXF 393 = system: RXF 393
CAKI-1 = system: CAKI-1
MOLT-4 = system: MOLT-4
SN12C = system: SN12C
HT-29 = system: HT-29
Malme-3M = system: Malme-3M
UACC-62 = system: UACC-62
OVCAR-8 = system: OVCAR-8
Hs-578T = system: Hs-578T
HCT-15 = system: HCT-15
CCRF-CEM = system: CCRF-CEM
RPMI-8226 = system: RPMI-8226
SR = system: SR
SF-539 = system: SF-539
HCT-116 = system: HCT-116
MDA-MB-435 = system: MDA-MB-435
K562 = system: K562
SF-268 = system: SF-268
OVCAR-4 = system: OVCAR-4
UO-31 = system: UO-31
NCI-H522 = system: NCI-H522
BT-549 = system: BT-549
PC-3 = system: PC-3
HOP-92 = system: HOP-92
SK-MEL-5 = system: SK-MEL-5
COLO 205 = system: COLO 205
SNB-75 = system: SNB-75
786-0 = system: 786-0
OVCAR-3 = system: OVCAR-3
EKVX = system: EKVX
IGROV-1 = system: IGROV-1
SK-MEL-28 = system: SK-MEL-28
SK-MEL-2 = system: SK-MEL-2
OVCAR-5 = system: OVCAR-5
DU-145 = system: DU-145
UACC-257 = system: UACC-257
KM12 = system: KM12
NCI-H226 = system: NCI-H226
NCI-H460 = system: NCI-H460
HL-60 = system: HL-60
SF-295 = system: SF-295
A549 = system: A549
HOP-62 = system: HOP-62
TK-10 = system: TK-10
MDA-MB-231 = system: MDA-MB-231
HCC 2998 = system: HCC 2998
MCF7 = system: MCF7
SNB-19 = system: SNB-19
U-251 = system: U-251

In the case of `CCCSc1ccc2[nH]c(/N=C/c3ccccc3)cc2c1`, the GI50 (A498) is reported as 28.8 µM (inactive), the GI50 (LOX IMVI) is reported as 17.4 µM (inactive) and the GI50 (NCI-H23) is reported as 41.7 µM (inactive). The GI50 (MDA-N) was 7.67 µM (inactive), the GI50 (M14) was 25.5 µM (inactive) and the GI50 (ACHN) was 31.2 µM (inactive). The GI50 (SW-620) was 23.1 µM (inactive), the GI50 (T47D) was 48 µM (inactive) and the GI50 (NCI/ADR-RES) was 21.9 µM (inactive). The GI50 (RXF 393) was 16.4 µM (inactive), the GI50 (CAKI-1) was 19.4 µM (inactive) and the GI50 (MOLT-4) was 13.7 µM (inactive). The GI50 (SN12C) was 27.3 µM (inactive), the GI50 (HT-29) was 22.3 µM (inactive) and the GI50 (Malme-3M) was 16.6 µM (inactive). For the same molecule, the GI50 (UACC-62) was 17.4 µM (inactive), the GI50 (OVCAR-8) was 23.3 µM (inactive) and the GI50 (Hs-578T) was 27.9 µM (inactive). For the same molecule, the GI50 (HCT-15) was 29 µM, the GI50 (CCRF-CEM) was 13.5 µM (inactive) and the GI50 (RPMI-8226) was 14.8 µM (inactive). For the same molecule, the GI50 (SR) was 3.51 µM (inactive), the GI50 (SF-539) was 20.5 µM (inactive) and the GI50 (HCT-116) was 17.7 µM (inactive). For the same molecule, the GI50 (MDA-MB-435) was 5.75 µM (inactive), the GI50 (K562) was 8.34 µM (inactive) and the GI50 (SF-268) was 19.7 µM (inactive). For the same molecule, the GI50 (OVCAR-4) was 16.8 µM (inactive), the GI50 (UO-31) was 30.3 µM (inactive) and the GI50 (NCI-H522) was 15.6 µM (inactive). The GI50 (BT-549) was 33.7 µM (inactive), the GI50 (PC-3) was 34.1 µM (inactive) and the GI50 (HOP-92) was 25.5 µM (inactive). For the same molecule, the GI50 (SK-MEL-5) was 7.14 µM (inactive), the GI50 (COLO 205) was 19.3 µM (inactive) and the GI50 (SNB-75) was 20.5 µM (inactive). The GI50 (786-0) was 19.1 µM (inactive), the GI50 (OVCAR-3) was 22.1 µM (inactive) and the GI50 (EKVX) was 26.9 µM (inactive). For the same molecule, the GI50 (IGROV-1) was 31.8 µM (inactive), the GI50 (SK-MEL-28) was 23.7 µM (inactive) and the GI50 (SK-MEL-2) was 16.6 µM (inactive). For the same molecule, the GI50 (OVCAR-5) was 40.1 µM (inactive), the GI50 (DU-145) was 30.5 µM (inactive) and the GI50 (UACC-257) was 19.7 µM (inactive).
With `CC(C)(C)C1CC[C@H](O)[C@H]([C@H](O)CC2CC(=O)N(c3ccccc3)C(=O)C2)C1` (some centres undefined) the GI50 (A498) was > 100 µM (inactive), the GI50 (LOX IMVI) was > 100 µM (inactive) and the GI50 (NCI-H23) was 91.6 µM (inactive). The GI50 (KM12) was > 100 µM (inactive), the GI50 (NCI-H226) was > 100 µM (inactive) and the GI50 (NCI-H460) was 95.9 µM (inactive). For the same molecule, the GI50 (MDA-N) was > 100 µM (inactive), the GI50 (M14) was > 100 µM (inactive) and the GI50 (ACHN) was > 100 µM (inactive). For the same molecule, the GI50 (HL-60) was > 100 µM (inactive), the GI50 (SW-620) was > 100 µM (inactive) and the GI50 (NCI/ADR-RES) was > 100 µM (inactive). The GI50 (RXF 393) was > 100 µM (inactive), the GI50 (CAKI-1) was > 100 µM (inactive) and the GI50 (MOLT-4) was 99.3 µM (inactive). For the same molecule, the GI50 (SN12C) was > 100 µM (inactive), the GI50 (SF-295) was 63.7 µM (inactive) and the GI50 (HT-29) was > 100 µM (inactive). The GI50 (Malme-3M) was > 100 µM (inactive), the GI50 (UACC-62) was 31.5 µM (inactive) and the GI50 (OVCAR-8) was > 100 µM (inactive). The GI50 (Hs-578T) was > 100 µM (inactive), the GI50 (A549) was > 100 µM (inactive) and the GI50 (HCT-15) was greater than 100 µM. The GI50 (CCRF-CEM) was > 100 µM (inactive), the GI50 (SR) was > 100 µM (inactive) and the GI50 (SF-539) was > 100 µM (inactive). For the same molecule, the GI50 (HCT-116) was > 100 µM (inactive), the GI50 (MDA-MB-435) was > 100 µM (inactive) and the GI50 (K562) was > 100 µM (inactive). For the same molecule, the GI50 (SF-268) was > 100 µM (inactive), the GI50 (HOP-62) was 74.6 µM (inactive) and the GI50 (OVCAR-4) was > 100 µM (inactive). The GI50 (TK-10) was > 100 µM (inactive), the GI50 (UO-31) was > 100 µM (inactive) and the GI50 (MDA-MB-231) was > 100 µM (inactive). The GI50 (NCI-H522) was > 100 µM (inactive), the GI50 (BT-549) was > 100 µM (inactive) and the GI50 (PC-3) was > 100 µM (inactive). The GI50 (HCC 2998) was > 100 µM (inactive), the GI50 (HOP-92) was 36.1 µM (inactive) and the GI50 (SK-MEL-5) was > 100 µM (inactive). For the same molecule, the GI50 (MCF7) was > 100 µM (inactive), the GI50 (SNB-75) was > 100 µM (inactive) and the GI50 (786-0) was > 100 µM (inactive). The GI50 (SNB-19) was > 100 µM (inactive), the GI50 (OVCAR-3) was > 100 µM (inactive) and the GI50 (EKVX) was > 100 µM (inactive). The GI50 (IGROV-1) was > 100 µM (inactive), the GI50 (SK-MEL-28) was > 100 µM (inactive) and the GI50 (U-251) was > 100 µM (inactive). The GI50 (OVCAR-5) was > 100 µM (inactive), the GI50 (DU-145) was > 100 µM (inactive) and the GI50 (UACC-257) was > 100 µM (inactive).
